Measurements: PubChem BioAssay (NCI)
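All cell lines were grown in 96-well plates and treated with compound for 48 hours. At the TGI there is no net growth.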

Legend:
Test in all cases: NCI-60 cell line screen, 48 h
[1] = system: SW-620 colon
[2] = system: SK-MEL-5 melanoma
[3] = system: SF-295 CNS
[4] = system: M19-MEL melanoma
[5] = system: OVCAR-5 ovarian
[6] = system: HOP-92 NSCLC
[7] = system: CAKI-1 renal
[8] = system: 786-0 renal
[9] = system: MALME-3M melanoma
[10] = system: DMS 273 small cell lung
[11] = system: SF-268 CNS
[12] = system: KM20L2 colon
[13] = system: COLO 205 colon
[14] = system: RXF-631 renal
[15] = system: DLD-1 colon
[16] = system: LXFL 529 NSCLC
[17] = system: HCT-116 colon
[18] = system: SK-MEL-2 melanoma
[19] = system: UACC-62 melanoma
[20] = system: K-562 leukemia
[21] = system: IGROV1 ovarian
[22] = system: HT29 colon
[23] = system: OVCAR-8 ovarian
[24] = system: SK-MEL-28 melanoma
[25] = system: TK-10 renal
[26] = system: XF 498 CNS
[27] = system: UO-31 renal
[28] = system: M14 melanoma
[29] = system: OVCAR-3 ovarian
[30] = system: CCRF-CEM leukemia
[31] = system: SK-OV-3 ovarian
[32] = system: RPMI-8226 leukemia
[33] = system: SNB-75 CNS
[34] = system: KM12 colon
[35] = system: UACC-257 melanoma
[36] = system: HL-60(TB) leukemia
[37] = system: HCT-15 colon
[38] = system: MOLT-4 leukemia
[39] = system: SN12C renal
[40] = system: SNB-78 CNS
[41] = system: A498 renal
[42] = system: EKVX NSCLC
[43] = system: SNB-19 CNS
[44] = system: HOP-62 NSCLC
[45] = system: U251 CNS
[46] = system: HOP-18 NSCLC
[47] = system: NCI-H522 lung
[48] = system: NCI-H226 lung
[49] = system: ACHN renal
[50] = system: LOX IMVI melanoma
[51] = system: NCI-H460 lung
[52] = system: OVCAR-4 ovarian
[53] = system: NCI-H23 lung
[54] = system: A549 NSCLC
[55] = system: HCC-2998 colon
[56] = system: DMS 114 small cell lung
[57] = system: SF-539 CNS
[58] = system: RXF 393 renal
[59] = system: SR leukemia

With `COC(=O)C1CCC(Nc2ccc(C)cc2C)=N1` (centres undefined) the TGI [1] was > 100 µM, the TGI [2] was > 100 µM and the TGI [3] was > 100 µM. For the same molecule, the TGI [4] was > 100 µM, the TGI [5] was > 100 µM and the TGI [6] was > 100 µM. The TGI [7] was > 100 µM, the TGI [8] was > 100 µM and the TGI [9] was > 100 µM. The TGI [10] was > 100 µM, the TGI [11] was > 100 µM and the TGI [12] was > 100 µM. For the same molecule, the TGI [13] was > 100 µM, the TGI [14] was > 100 µM and the TGI [15] was > 100 µM. The TGI [16] was > 100 µM, the TGI [17] was > 100 µM and the TGI [18] was > 100 µM. The TGI [19] was > 100 µM, the TGI [20] was > 100 µM and the TGI [21] was > 100 µM. For the same molecule, the TGI [22] was > 100 µM, the TGI [23] was > 100 µM and the TGI [24] was > 100 µM. The TGI [25] was > 100 µM, the TGI [26] was > 100 µM and the TGI [27] was > 100 µM. For the same molecule, the TGI [28] was > 100 µM, the TGI [29] was > 100 µM and the TGI [30] was > 100 µM. The TGI [31] was > 100 µM, the TGI [32] was > 100 µM and the TGI [33] was > 100 µM. For the same molecule, the TGI [34] was > 100 µM, the TGI [35] was > 100 µM and the TGI [36] was > 100 µM. The TGI [37] was > 100 µM, the TGI [38] was > 100 µM and the TGI [39] was > 100 µM. For the same molecule, the TGI [40] was > 100 µM, the TGI [41] was > 100 µM and the TGI [42] was > 100 µM. For the same molecule, the TGI [43] was > 100 µM, the TGI [44] was > 100 µM and the TGI [45] was > 100 µM. For the same molecule, the TGI [46] was > 100 µM, the TGI [47] was > 100 µM and the TGI [48] was > 100 µM. The TGI [49] was > 100 µM, the TGI [50] was > 100 µM and the TGI [51] was > 100 µM. For the same molecule, the TGI [52] was > 100 µM, the TGI [53] was > 100 µM and the TGI [54] was > 100 µM. For the same molecule, the TGI [55] was > 100 µM.

Work on `Cc1ccccc1C1=[N+]([O-])c2ccccc2C1=O` yielded a TGI [1] of 45.1 µM, a TGI [2] of 30.9 µM and a TGI [3] of 44.9 µM. The TGI [56] was 27.4 µM, the TGI [57] was 33.7 µM and the TGI [4] was 28.5 µM. For the same molecule, the TGI [5] was 43.1 µM, the TGI [6] was 62.5 µM and the TGI [8] was 31.3 µM. It also gave a TGI [9] of 33.2 µM, a TGI [11] of 36.8 µM and a TGI [12] of 32.9 µM. It also gave a TGI [13] of 29.1 µM, a TGI [14] of 42.8 µM and a TGI [15] of 31.9 µM. For the same molecule, the TGI [16] was 28.3 µM, the TGI [17] was 32.4 µM and the TGI [18] was 21.2 µM. For the same molecule, the TGI [19] was 34.6 µM, the TGI [20] was 45.7 µM and the TGI [21] was 34.9 µM. It also gave a TGI [22] of 27.7 µM, a TGI [23] of 30.3 µM and a TGI [24] of 35.8 µM. It also gave a TGI [25] of 32.2 µM, a TGI [26] of 31.3 µM and a TGI [27] of 36.6 µM. For the same molecule, the TGI [28] was 32.4 µM, the TGI [29] was 25.2 µM and the TGI [30] was 54.5 µM. The TGI [31] was > 100 µM, the TGI [32] was > 100 µM and the TGI [58] was 37.3 µM. For the same molecule, the TGI [33] was 47 µM, the TGI [34] was 25.9 µM and the TGI [35] was 27.9 µM. For the same molecule, the TGI [36] was 28.9 µM, the TGI [37] was 34.8 µM and the TGI [59] was > 100 µM. The TGI [38] was 49.2 µM, the TGI [39] was 32.1 µM and the TGI [41] was > 100 µM. For the same molecule, the TGI [42] was 35.4 µM, the TGI [43] was > 100 µM and the TGI [44] was 57.2 µM. The TGI [45] was 31 µM, the TGI [46] was 54.4 µM and the TGI [47] was 29 µM. For the same molecule, the TGI [48] was 30.7 µM, the TGI [49] was 30.6 µM and the TGI [50] was 35 µM. It also gave a TGI [51] of 37.3 µM and a TGI [53] of 35.4 µM.

In the case of `Cc1oc2c(C)c3oc(=O)cc(C)c3cc2c1CNC(=O)[C@@H]1OCCOCCOCCOCCOCCOC1C(=O)O` (some centres undefined), the TGI [1] is reported as > 100 µM, the TGI [2] is reported as > 100 µM and the TGI [3] is reported as > 100 µM. For the same molecule, the TGI [56] was > 100 µM, the TGI [57] was > 100 µM and the TGI [4] was > 100 µM. For the same molecule, the TGI [5] was > 100 µM, the TGI [6] was > 100 µM and the TGI [7] was > 100 µM. For the same molecule, the TGI [8] was 45 µM, the TGI [9] was > 100 µM and the TGI [10] was > 100 µM. The TGI [11] was > 100 µM, the TGI [12] was > 100 µM and the TGI [13] was > 100 µM. The TGI [14] was > 100 µM, the TGI [15] was > 100 µM and the TGI [16] was 27.7 µM. For the same molecule, the TGI [17] was > 100 µM, the TGI [19] was > 100 µM and the TGI [20] was > 100 µM. For the same molecule, the TGI [21] was > 100 µM, the TGI [22] was > 100 µM and the TGI [23] was > 100 µM. For the same molecule, the TGI [25] was > 100 µM, the TGI [27] was > 100 µM and the TGI [28] was 27.5 µM. For the same molecule, the TGI [29] was > 100 µM, the TGI [30] was > 100 µM and the TGI [31] was > 100 µM. The TGI [32] was > 100 µM, the TGI [58] was > 100 µM and the TGI [33] was > 100 µM. For the same molecule, the TGI [34] was > 100 µM, the TGI [35] was > 100 µM and the TGI [36] was > 100 µM. For the same molecule, the TGI [37] was > 100 µM, the TGI [59] was > 100 µM and the TGI [38] was > 100 µM. The TGI [39] was > 100 µM, the TGI [40] was > 100 µM and the TGI [41] was > 100 µM. For the same molecule, the TGI [42] was > 100 µM, the TGI [43] was > 100 µM and the TGI [44] was > 100 µM. The TGI [45] was > 100 µM, the TGI [46] was > 100 µM and the TGI [47] was > 100 µM. For the same molecule, the TGI [48] was > 100 µM, the TGI [49] was > 100 µM and the TGI [50] was > 100 µM. The TGI [51] was > 100 µM, the TGI [52] was > 100 µM and the TGI [53] was > 100 µM. The TGI [54] was > 100 µM and the TGI [55] was > 100 µM.

`CCOCN1COCN=C1NC#N` was tested, and the TGI [1] was 35.3 µM, the TGI [2] was > 100 µM and the TGI [3] was > 100 µM. The TGI [56] was > 100 µM, the TGI [57] was > 100 µM and the TGI [5] was > 100 µM. For the same molecule, the TGI [6] was > 100 µM, the TGI [7] was > 100 µM and the TGI [8] was > 100 µM. For the same molecule, the TGI [9] was > 100 µM, the TGI [10] was > 100 µM and the TGI [11] was > 100 µM. The TGI [12] was > 100 µM, the TGI [13] was 69.7 µM and the TGI [14] was > 100 µM. The TGI [15] was > 100 µM, the TGI [16] was > 100 µM and the TGI [17] was > 100 µM. For the same molecule, the TGI [18] was > 100 µM, the TGI [19] was > 100 µM and the TGI [20] was > 100 µM. The TGI [21] was > 100 µM, the TGI [22] was > 100 µM and the TGI [23] was > 100 µM. The TGI [24] was > 100 µM, the TGI [25] was > 100 µM and the TGI [26] was > 100 µM. The TGI [27] was > 100 µM, the TGI [28] was > 100 µM and the TGI [29] was > 100 µM. The TGI [31] was > 100 µM, the TGI [58] was 34.7 µM and the TGI [33] was > 100 µM. For the same molecule, the TGI [34] was > 100 µM, the TGI [35] was > 100 µM and the TGI [36] was > 100 µM. The TGI [37] was > 100 µM, the TGI [59] was 76.5 µM and the TGI [38] was > 100 µM. For the same molecule, the TGI [39] was > 100 µM, the TGI [40] was > 100 µM and the TGI [41] was > 100 µM. The TGI [42] was > 100 µM, the TGI [43] was > 100 µM and the TGI [44] was > 100 µM. The TGI [45] was > 100 µM, the TGI [46] was > 100 µM and the TGI [47] was > 100 µM. The TGI [48] was > 100 µM, the TGI [49] was > 100 µM and the TGI [51] was > 100 µM. For the same molecule, the TGI [52] was > 100 µM, the TGI [53] was > 100 µM and the TGI [54] was > 100 µM. For the same molecule, the TGI [55] was > 100 µM.
